Numbers after ± are expanded uncertainties.
What was measured:
[1] = molar heat capacity at constant pressure; xn = mol fraction of the nth substance listed; conditions: 101 kPa, Liquid, Small sample (50 mg) DSC
[2] = xn = mol fraction of the nth substance listed; conditions: 101 kPa, Liquid; for mass density: Vibrating tube method; for speed of sound: Pulse-echo method

Q: For COC(=O)OC [dimethyl carbonate] + CCCCCCCC, which “molar heat capacity at constant pressure” value ([1]; 288.15 K, x1 = 0.05306) is on record?
A: 245.12 ± 4.9 J/K/mol

Q: And the “molar heat capacity at constant pressure” value ([1]; 288.15 K, x1 = 0.1016)?
A: 240.86 ± 4.8 J/K/mol

Q: And the “molar heat capacity at constant pressure” value ([1]; 288.15 K, x1 = 0.2012)?
A: 232.99 ± 4.7 J/K/mol

Q: What about the “molar heat capacity at constant pressure” value ([1]; 288.15 K, x1 = 0.2999) of the same compound?
A: 225.81 ± 4.5 J/K/mol

Q: What about the “molar heat capacity at constant pressure” value ([1]; 288.15 K, x1 = 0.4012) of the same compound?
A: 219.02 ± 4.4 J/K/mol

Q: What about the “molar heat capacity at constant pressure” value ([1]; 288.15 K, x1 = 0.4549) of the same compound?
A: 215.27 ± 4.3 J/K/mol

Q: And the “molar heat capacity at constant pressure” value ([1]; 288.15 K, x1 = 0.5037)?
A: 211.61 ± 4.2 J/K/mol

Q: What about the “molar heat capacity at constant pressure” value ([1]; 288.15 K, x1 = 0.5561) of the same compound?
A: 207.58 ± 4.2 J/K/mol

Q: And the “molar heat capacity at constant pressure” value ([1]; 288.15 K, x1 = 0.6482)?
A: 199.24 ± 4 J/K/mol

Q: And the “molar heat capacity at constant pressure” value ([1]; 288.15 K, x1 = 0.7075)?
A: 192.93 ± 3.9 J/K/mol

Q: And the “molar heat capacity at constant pressure” value ([1]; 288.15 K, x1 = 0.7982)?
A: 182.94 ± 3.7 J/K/mol

Q: What about the “molar heat capacity at constant pressure” value ([1]; 288.15 K, x1 = 0.8484) of the same compound?
A: 177.49 ± 3.5 J/K/mol

Q: And the “molar heat capacity at constant pressure” value ([1]; 288.15 K, x1 = 0.9493)?
A: 167.98 ± 3.4 J/K/mol

Q: What about the “molar heat capacity at constant pressure” value ([1]; 298.15 K, x1 = 0.05306) of the same compound?
A: 248.71 ± 5 J/K/mol

Q: And the “molar heat capacity at constant pressure” value ([1]; 298.15 K, x1 = 0.1016)?
A: 244.21 ± 4.9 J/K/mol

Q: And the “molar heat capacity at constant pressure” value ([1]; 298.15 K, x1 = 0.1496)?
A: 240.18 ± 4.8 J/K/mol

Q: What about the “molar heat capacity at constant pressure” value ([1]; 298.15 K, x1 = 0.2012) of the same compound?
A: 235.89 ± 4.7 J/K/mol

Q: What about the “molar heat capacity at constant pressure” value ([1]; 298.15 K, x1 = 0.2999) of the same compound?
A: 228.26 ± 4.6 J/K/mol

Q: What about the “molar heat capacity at constant pressure” value ([1]; 298.15 K, x1 = 0.4012) of the same compound?
A: 220.47 ± 4.4 J/K/mol

Q: And the “molar heat capacity at constant pressure” value ([1]; 298.15 K, x1 = 0.4549)?
A: 216.32 ± 4.3 J/K/mol

Q: What about the “molar heat capacity at constant pressure” value ([1]; 298.15 K, x1 = 0.5037) of the same compound?
A: 212.23 ± 4.2 J/K/mol

Q: And the “molar heat capacity at constant pressure” value ([1]; 298.15 K, x1 = 0.5561)?
A: 207.88 ± 4.2 J/K/mol

Q: What about the “molar heat capacity at constant pressure” value ([1]; 298.15 K, x1 = 0.6482) of the same compound?
A: 199.37 ± 4 J/K/mol

Q: And the “molar heat capacity at constant pressure” value ([1]; 298.15 K, x1 = 0.7982)?
A: 183.94 ± 3.7 J/K/mol

Q: And the “molar heat capacity at constant pressure” value ([1]; 298.15 K, x1 = 0.8484)?
A: 178.74 ± 3.6 J/K/mol

Q: What about the “molar heat capacity at constant pressure” value ([1]; 298.15 K, x1 = 0.9493) of the same compound?
A: 169.06 ± 3.4 J/K/mol

Q: What about the “molar heat capacity at constant pressure” value ([1]; 308.15 K, x1 = 0.05306) of the same compound?
A: 252.62 ± 5 J/K/mol

Q: What about the “molar heat capacity at constant pressure” value ([1]; 308.15 K, x1 = 0.1016) of the same compound?
A: 248.11 ± 5 J/K/mol

Q: What about the “molar heat capacity at constant pressure” value ([1]; 308.15 K, x1 = 0.1496) of the same compound?
A: 243.91 ± 4.9 J/K/mol

Q: And the “molar heat capacity at constant pressure” value ([1]; 308.15 K, x1 = 0.2012)?
A: 239.35 ± 4.8 J/K/mol

Q: And the “molar heat capacity at constant pressure” value ([1]; 308.15 K, x1 = 0.2999)?
A: 231.22 ± 4.6 J/K/mol

Q: And the “molar heat capacity at constant pressure” value ([1]; 308.15 K, x1 = 0.4012)?
A: 222.77 ± 4.5 J/K/mol

Q: And the “molar heat capacity at constant pressure” value ([1]; 308.15 K, x1 = 0.4549)?
A: 218.33 ± 4.4 J/K/mol

Q: What about the “molar heat capacity at constant pressure” value ([1]; 308.15 K, x1 = 0.5037) of the same compound?
A: 213.92 ± 4.3 J/K/mol

Q: And the “molar heat capacity at constant pressure” value ([1]; 308.15 K, x1 = 0.5561)?
A: 209.21 ± 4.2 J/K/mol

Q: And the “molar heat capacity at constant pressure” value ([1]; 308.15 K, x1 = 0.5998)?
A: 205.31 ± 4.1 J/K/mol

Q: And the “molar heat capacity at constant pressure” value ([1]; 308.15 K, x1 = 0.6482)?
A: 200.7 ± 4 J/K/mol

Q: What about the “molar heat capacity at constant pressure” value ([1]; 308.15 K, x1 = 0.7982) of the same compound?
A: 185.39 ± 3.7 J/K/mol

Q: And the “molar heat capacity at constant pressure” value ([1]; 308.15 K, x1 = 0.8484)?
A: 180.34 ± 3.6 J/K/mol

Q: And the “molar heat capacity at constant pressure” value ([1]; 308.15 K, x1 = 0.8969)?
A: 175.52 ± 3.5 J/K/mol

Q: And the “molar heat capacity at constant pressure” value ([1]; 308.15 K, x1 = 0.9493)?
A: 170.5 ± 3.4 J/K/mol

Q: And the mass density ([2]; 288.15 K, x1 = 0.05047)?
A: 715.14 ± 0.27 kg/m3

Q: And the mass density ([2]; 288.15 K, x1 = 0.1072)?
A: 725.36 ± 0.27 kg/m3

Q: What about the mass density ([2]; 288.15 K, x1 = 0.1969) of the same compound?
A: 743.56 ± 0.29 kg/m3

Q: And the mass density ([2]; 288.15 K, x1 = 0.2958)?
A: 766.42 ± 0.31 kg/m3

Q: What about the mass density ([2]; 288.15 K, x1 = 0.4018) of the same compound?
A: 794.6 ± 0.34 kg/m3

Q: And the mass density ([2]; 288.15 K, x1 = 0.5011)?
A: 825 ± 0.38 kg/m3

Q: What about the mass density ([2]; 288.15 K, x1 = 0.5974) of the same compound?
A: 858.8 ± 0.4 kg/m3

Q: And the mass density ([2]; 288.15 K, x1 = 0.699)?
A: 900.18 ± 0.42 kg/m3

Q: And the mass density ([2]; 288.15 K, x1 = 0.7982)?
A: 947.83 ± 0.45 kg/m3

Q: What about the mass density ([2]; 288.15 K, x1 = 0.8992) of the same compound?
A: 1005.83 ± 0.49 kg/m3

Q: What about the mass density ([2]; 288.15 K, x1 = 0.949) of the same compound?
A: 1038.95 ± 0.52 kg/m3

Q: What about the mass density ([2]; 293.15 K, x1 = 0.05047) of the same compound?
A: 710.88 ± 0.27 kg/m3

Q: And the mass density ([2]; 293.15 K, x1 = 0.1072)?
A: 721.13 ± 0.27 kg/m3

Q: What about the mass density ([2]; 293.15 K, x1 = 0.1969) of the same compound?
A: 739.1 ± 0.29 kg/m3

Q: And the mass density ([2]; 293.15 K, x1 = 0.2958)?
A: 761.79 ± 0.31 kg/m3

Q: And the mass density ([2]; 293.15 K, x1 = 0.4018)?
A: 789.7 ± 0.34 kg/m3

Q: What about the mass density ([2]; 293.15 K, x1 = 0.5011) of the same compound?
A: 819.9 ± 0.38 kg/m3

Q: What about the mass density ([2]; 293.15 K, x1 = 0.5974) of the same compound?
A: 853.5 ± 0.4 kg/m3

Q: And the mass density ([2]; 293.15 K, x1 = 0.699)?
A: 894.47 ± 0.42 kg/m3

Q: And the mass density ([2]; 293.15 K, x1 = 0.7982)?
A: 941.92 ± 0.45 kg/m3

Q: What about the mass density ([2]; 293.15 K, x1 = 0.8992) of the same compound?
A: 999.55 ± 0.49 kg/m3

Q: And the mass density ([2]; 293.15 K, x1 = 0.949)?
A: 1032.56 ± 0.52 kg/m3

Q: And the speed of sound ([2]; 298.15 K, x1 = 0.05047)?
A: 1165 ± 1.4 m/s

Q: And the speed of sound ([2]; 298.15 K, x1 = 0.1072)?
A: 1158.1 ± 1.4 m/s

Q: What about the speed of sound ([2]; 298.15 K, x1 = 0.1969) of the same compound?
A: 1148.9 ± 1.4 m/s

Q: What about the speed of sound ([2]; 298.15 K, x1 = 0.2958) of the same compound?
A: 1141.5 ± 1.4 m/s

Q: What about the speed of sound ([2]; 298.15 K, x1 = 0.4018) of the same compound?
A: 1136.1 ± 1.4 m/s

Q: What about the speed of sound ([2]; 298.15 K, x1 = 0.5011) of the same compound?
A: 1133.7 ± 1.4 m/s

Q: And the speed of sound ([2]; 298.15 K, x1 = 0.5974)?
A: 1134.2 ± 1.5 m/s

Q: What about the speed of sound ([2]; 298.15 K, x1 = 0.699) of the same compound?
A: 1138.7 ± 1.5 m/s

Q: What about the speed of sound ([2]; 298.15 K, x1 = 0.7982) of the same compound?
A: 1149.1 ± 1.5 m/s

Q: And the speed of sound ([2]; 298.15 K, x1 = 0.8992)?
A: 1167.7 ± 1.6 m/s

Q: What about the speed of sound ([2]; 298.15 K, x1 = 0.949) of the same compound?
A: 1180.9 ± 1.6 m/s

Q: What about the mass density ([2]; 298.15 K, x1 = 0.05047) of the same compound?
A: 706.69 ± 0.27 kg/m3

Q: And the mass density ([2]; 298.15 K, x1 = 0.1072)?
A: 716.89 ± 0.27 kg/m3

Q: And the mass density ([2]; 298.15 K, x1 = 0.1969)?
A: 734.68 ± 0.29 kg/m3

Q: What about the mass density ([2]; 298.15 K, x1 = 0.2958) of the same compound?
A: 757.15 ± 0.31 kg/m3

Q: And the mass density ([2]; 298.15 K, x1 = 0.4018)?
A: 784.9 ± 0.34 kg/m3

Q: What about the mass density ([2]; 298.15 K, x1 = 0.5011) of the same compound?
A: 814.8 ± 0.38 kg/m3

Q: And the mass density ([2]; 298.15 K, x1 = 0.5974)?
A: 848.1 ± 0.39 kg/m3

Q: What about the mass density ([2]; 298.15 K, x1 = 0.699) of the same compound?
A: 888.77 ± 0.42 kg/m3

Q: What about the mass density ([2]; 298.15 K, x1 = 0.7982) of the same compound?
A: 935.98 ± 0.45 kg/m3

Q: What about the mass density ([2]; 298.15 K, x1 = 0.8992) of the same compound?
A: 993.3 ± 0.49 kg/m3

Q: And the mass density ([2]; 298.15 K, x1 = 0.949)?
A: 1026.12 ± 0.51 kg/m3

Q: What about the mass density ([2]; 308.15 K, x1 = 0.05047) of the same compound?
A: 698.46 ± 0.27 kg/m3

Q: What about the mass density ([2]; 308.15 K, x1 = 0.1072) of the same compound?
A: 708.37 ± 0.28 kg/m3

Q: And the mass density ([2]; 308.15 K, x1 = 0.1969)?
A: 725.85 ± 0.29 kg/m3

Q: What about the mass density ([2]; 308.15 K, x1 = 0.2958) of the same compound?
A: 747.86 ± 0.31 kg/m3

Q: And the mass density ([2]; 308.15 K, x1 = 0.4018)?
A: 775.1 ± 0.33 kg/m3

Q: What about the mass density ([2]; 308.15 K, x1 = 0.5011) of the same compound?
A: 804.5 ± 0.37 kg/m3

Q: And the mass density ([2]; 308.15 K, x1 = 0.5974)?
A: 837.3 ± 0.39 kg/m3

Q: And the mass density ([2]; 308.15 K, x1 = 0.699)?
A: 877.52 ± 0.41 kg/m3

Q: And the mass density ([2]; 308.15 K, x1 = 0.7982)?
A: 924.07 ± 0.44 kg/m3

Q: And the mass density ([2]; 308.15 K, x1 = 0.8992)?
A: 980.86 ± 0.48 kg/m3

Q: What about the mass density ([2]; 308.15 K, x1 = 0.949) of the same compound?
A: 1013.24 ± 0.51 kg/m3
